From patent US11000033B2, “Ketone or oxime compound, and herbicide” (NISSAN CHEMICAL CORPORATION, priority 2014, dated 2021)

Columns and labels:
Type in all cases: in vivo
Scirpus juncoides = assay: Test Example 1: herbicidal activity, application before weed generation in submerged conditions (symbol B); settings: application herbicide amount 320 g/ha
Summary of the method: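 Ratings (5: ≥90%, near complete withering; 4: 70–<90%; 3: 40–<70%; 2: 20–<40%; 1: 5–<20%; 0: ≤5%) were assigned 3 weeks after the diluted emulsion was applied to the water surface of freshly sown, submerged pots.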

Setaria viridis [1] = assay: Test Example 4: herbicidal effect by soil treatment (symbol G); settings: application herbicide amount 320 g/ha
Summary of the method: (§1)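 Seeds were sown in sterilized diluvial soil, covered with about 1.5 cm of soil, and the soil surface was sprayed with a water-diluted emulsion of the compound at a predetermined rate. Plants grew in a greenhouse at 25° C. to 30° C.; effects were scored visually 3 weeks after application.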

Avena fatua = assay: Test Example 4: herbicidal effect by soil treatment (symbol I); settings: application herbicide amount 320 g/ha
Summary of the method: as §1

Alopecurus myosuroides [2] = assay: Test Example 4: herbicidal effect by soil treatment (symbol J); settings: application herbicide amount 320 g/ha
Summary of the method: as §1

Lolium multiflorum Lam. = assay: Test Example 4: herbicidal effect by soil treatment (symbol K); settings: application herbicide amount 320 g/ha
Summary of the method: as §1

Abutilon theophrasti = assay: Test Example 4: herbicidal effect by soil treatment (symbol M); settings: application herbicide amount 320 g/ha
Summary of the method: as §1

Amaranthus retroflexus [3] = assay: Test Example 4: herbicidal effect by soil treatment (symbol N); settings: application herbicide amount 320 g/ha
Summary of the method: as §1

Stellaria media = assay: Test Example 4: herbicidal effect by soil treatment (symbol P); settings: application herbicide amount 320 g/ha
Summary of the method: as §1

Galium spurium = assay: Test Example 4: herbicidal effect by soil treatment (symbol Q); settings: application herbicide amount 320 g/ha
Summary of the method: as §1

corn = assay: Test Example 4: effect on crop by soil treatment (symbol c); settings: application herbicide amount 320 g/ha
Summary of the method: (§2)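 Seeds were sown in spots on sterilized diluvial soil in a plastic box and covered with about 1.5 cm of soil. Plants were then grown in a greenhouse at 25° C. to 30° C.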

soybean [4] = assay: Test Example 4: effect on crop by soil treatment (symbol d); settings: application herbicide amount 320 g/ha
Summary of the method: as §2

rice = assay: Test Example 4: effect on crop by soil treatment (symbol b); settings: application herbicide amount 320 g/ha
Summary of the method: as §2

wheat [5] = assay: Test Example 4: effect on crop by soil treatment (symbol e); settings: application herbicide amount 320 g/ha
Summary of the method: as §2

Digitaria ciliaris = assay: Test Example 5: herbicidal effect by foliage application, plastic box (symbol F); settings: 320 g/ha, 3 weeks after application
Summary of the method: (§3)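 Seeds were sown in sterilized diluvial soil, covered with about 1.5 cm of soil and grown 14 days in a greenhouse at 25° C. to 30° C. An emulsifiable formulation diluted in water to a set rate was sprayed over foliage, and injury was scored 3 weeks later.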

Setaria viridis [6] = assay: Test Example 5: herbicidal effect by foliage application, plastic box (symbol G); settings: 320 g/ha, 3 weeks after application
Summary of the method: as §3

[7] = test system: Echinochloa crus-galli var. crus-galli; assay: Test Example 5: herbicidal effect by foliage application, plastic box (symbol H); settings: 320 g/ha, 3 weeks after application
Summary of the method: as §3

Alopecurus myosuroides [8] = assay: Test Example 5: herbicidal effect by foliage application, plastic box (symbol J); settings: 320 g/ha, 3 weeks after application
Summary of the method: as §3

Amaranthus retroflexus [9] = assay: Test Example 5: herbicidal effect by foliage application, plastic box (symbol N); settings: 320 g/ha, 3 weeks after application
Summary of the method: as §3

soybean [10] = assay: Test Example 5: effect on crop by foliage application, plastic box (symbol d); settings: 320 g/ha, 3 weeks after application
Summary of the method: (§4)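 Foliage-application test plants come from spot sowing in sterilized diluvial soil under a soil layer of about 1.5 cm, grown at 25° C. to 30° C. in a greenhouse.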

rice plant = assay: Test Example 5: effect on crop by foliage application, plastic box (symbol b); settings: 320 g/ha, 3 weeks after application
Summary of the method: as §4

wheat [11] = assay: Test Example 5: effect on crop by foliage application, plastic box (symbol e); settings: 320 g/ha, 3 weeks after application
Summary of the method: as §4

Row | Structure (SMILES) | Herbicidal effect grade, B: Scirpus juncoides (Scirpus juncoides) | F: Digitaria ciliaris, herbicidal effect (criteria of Test Example 1) (Digitaria ciliaris) | G: Setaria viridis, herbicidal effect (criteria of Test Example 1) (Setaria viridis [6]) | H: Echinochloa crus-galli var. crus-galli, herbicidal effect (criteria of Test Example 1) [7] | J: Alopecurus myosuroides, herbicidal effect (criteria of Test Example 1) (Alopecurus myosuroides [8]) | N: Amaranthus retroflexus, herbicidal effect (criteria of Test Example 1) (Amaranthus retroflexus [9]) | d: soybean, effect on crop (criteria of Test Example 1) (soybean [10]) | b: directly sowed rice plant, effect on crop (criteria of Test Example 1) (rice plant) | e: wheat, effect on crop (criteria of Test Example 1) (wheat [11]) | Herbicidal effect grade, G: Setaria viridis (Setaria viridis [1]) | Herbicidal effect grade, I: Avena fatua (Avena fatua) | Herbicidal effect grade, J: Alopecurus myosuroides (Alopecurus myosuroides [2]) | Herbicidal effect grade, K: Lolium multiflorum Lam. (Lolium multiflorum Lam.) | Herbicidal effect grade, M: Abutilon theophrasti (Abutilon theophrasti) | Herbicidal effect grade, N: Amaranthus retroflexus (Amaranthus retroflexus [3]) | Herbicidal effect grade, P: Stellaria media (Stellaria media) | Herbicidal effect grade, Q: Galium spurium (Galium spurium) | Effect on crop grade, c: corn (corn) | Effect on crop grade, d: soybean (soybean [4]) | Effect on crop grade, b: directly sowed rice plant (rice) | other results
1 | CON=C(C)CC1CC(OCOC(=O)c2ccccc2)=C(c2c(C)cc(-c3ccc(Cl)cc3)cc2C)C1=O (stereo not drawn) [6-083] | 4 (Herbicidal ratio of 70% or higher and lower than 90%) | 5 (Herbicidal ratio of 90% or more (almost completely withered)) | 5 (Herbicidal ratio of 90% or more (almost completely withered)) | 5 (Herbicidal ratio of 90% or more (almost completely withered)) | 5 (Herbicidal ratio of 90% or more (almost completely withered)) | 3 (Herbicidal ratio of 40% or higher and lower than 70%) | 0 (Herbicidal ratio of 5% or lower (almost no effect)) | 5 (Herbicidal ratio of 90% or more (almost completely withered)) | 4 (Herbicidal ratio of 70% or higher and lower than 90%) | – | – | – | – | – | – | – | – | – | – | – | G: Setaria viridis, herbicidal effect grade (Setaria viridis [1]): 5 (Herbicidal ratio of 90% or more (almost completely withered)); I: Avena fatua, herbicidal effect grade (Avena fatua): 0 (Herbicidal ratio of 5% or lower (almost no effect)); J: Alopecurus myosuroides, herbicidal effect grade (Alopecurus myosuroides [2]): 5 (Herbicidal ratio of 90% or more (almost completely withered)); K: Lolium multiflorum Lam., herbicidal effect grade (Lolium multiflorum Lam.): 1 (Herbicidal ratio of 5% or higher and lower than 20%); M: Abutilon theophrasti, herbicidal effect grade (Abutilon theophrasti): 0 (Herbicidal ratio of 5% or lower (almost no effect)); N: Amaranthus retroflexus, herbicidal effect grade (Amaranthus retroflexus [3]): 0 (Herbicidal ratio of 5% or lower (almost no effect)); P: Stellaria media, herbicidal effect grade (Stellaria media): 0 (Herbicidal ratio of 5% or lower (almost no effect)); Q: Galium spurium, herbicidal effect grade (Galium spurium): 0 (Herbicidal ratio of 5% or lower (almost no effect)); c: corn, effect on crop grade (corn): 0 (Herbicidal ratio of 5% or lower (almost no effect)); d: soybean, effect on crop grade (soybean [4]): 0 (Herbicidal ratio of 5% or lower (almost no effect)); b: directly sowed rice plant, effect on crop grade (rice): 0 (Herbicidal ratio of 5% or lower (almost no effect)); e: wheat, effect on crop grade (wheat [5]): 0 (Herbicidal ratio of 5% or lower (almost no effect))
2 | CON=C(C)CC1CC(O)=C(c2c(C)cc(-c3cc(Cl)cc(Cl)c3)cc2C)C1=O (stereo not drawn) [6-087] | 0 (Herbicidal ratio of 5% or lower (almost no effect)) | 5 (Herbicidal ratio of 90% or more (almost completely withered)) | 5 (Herbicidal ratio of 90% or more (almost completely withered)) | 5 (Herbicidal ratio of 90% or more (almost completely withered)) | 4 (Herbicidal ratio of 70% or higher and lower than 90%) | 0 (Herbicidal ratio of 5% or lower (almost no effect)) | 3 (Herbicidal ratio of 40% or higher and lower than 70%) | 1 (Herbicidal ratio of 5% or higher and lower than 20%) | 1 (Herbicidal ratio of 5% or higher and lower than 20%) | 5 (Herbicidal ratio of 90% or more (almost completely withered)) | 0 (Herbicidal ratio of 5% or lower (almost no effect)) | 4 (Herbicidal ratio of 70% or higher and lower than 90%) | 3 (Herbicidal ratio of 40% or higher and lower than 70%) | 0 (Herbicidal ratio of 5% or lower (almost no effect)) | 0 (Herbicidal ratio of 5% or lower (almost no effect)) | 0 (Herbicidal ratio of 5% or lower (almost no effect)) | 0 (Herbicidal ratio of 5% or lower (almost no effect)) | 0 (Herbicidal ratio of 5% or lower (almost no effect)) | 3 (Herbicidal ratio of 40% or higher and lower than 70%) | 0 (Herbicidal ratio of 5% or lower (almost no effect)) | Effect on crop grade, e: wheat (wheat [5]): 0 (Herbicidal ratio of 5% or lower (almost no effect))
3 | CC(=O)CC1CC(O)=C(c2c(C)cc(-c3ccc(C)cc3)cc2C)C1=O (stereo not drawn) [7-007] | 1 (Herbicidal ratio of 5% or higher and lower than 20%) | 5 (Herbicidal ratio of 90% or more (almost completely withered)) | 5 (Herbicidal ratio of 90% or more (almost completely withered)) | 5 (Herbicidal ratio of 90% or more (almost completely withered)) | 5 (Herbicidal ratio of 90% or more (almost completely withered)) | 0 (Herbicidal ratio of 5% or lower (almost no effect)) | 0 (Herbicidal ratio of 5% or lower (almost no effect)) | 5 (Herbicidal ratio of 90% or more (almost completely withered)) | 2 (Herbicidal ratio of 20% or higher and lower than 40%) | 4 (Herbicidal ratio of 70% or higher and lower than 90%) | 0 (Herbicidal ratio of 5% or lower (almost no effect)) | 5 (Herbicidal ratio of 90% or more (almost completely withered)) | 5 (Herbicidal ratio of 90% or more (almost completely withered)) | 0 (Herbicidal ratio of 5% or lower (almost no effect)) | 0 (Herbicidal ratio of 5% or lower (almost no effect)) | 0 (Herbicidal ratio of 5% or lower (almost no effect)) | 0 (Herbicidal ratio of 5% or lower (almost no effect)) | 3 (Herbicidal ratio of 40% or higher and lower than 70%) | 0 (Herbicidal ratio of 5% or lower (almost no effect)) | 4 (Herbicidal ratio of 70% or higher and lower than 90%) | Effect on crop grade, e: wheat (wheat [5]): 0 (Herbicidal ratio of 5% or lower (almost no effect))
